Test results published in article PMC9025336 (Antibiotics, 2022).
pKd: −log10 of the molar value. In brackets after ≈: the same amount, converted by molar mass. Peptide text beside a SMILES is read from it. * marks the point of attachment. Orn(α-tetramethylguanidino) = CN(C)C(=N[C@@H](CCCN)C(=O)*)N(C)C

Experiments:
[1] = tested on: 70S ribosome extract of E. coli BW25113; experiment: Fluorescence polarization, Kd of cf-labeled peptides; assay type: binding, Escherichia coli; conditions: determined for the cf-labeled peptide; BW25113 ribosome extract; 28 °C, 90 min; 95% confidence interval in brackets; triplicate on at least two days; read-out: Kd, BW
Experimental: (§1) E. coli BW25113 and E. coli Rosetta pLysS were cultivated in LB medium and harvested at an OD600 of ~4 by centrifugation (5000× g, 30 min, 4 °C). The cell pellets were washed by resuspension in ribosome preparation buffer (20 mmol/L Hepes-KOH, 6 mmol/L MgCl2, 30 mmol/L NH4Cl, pH 7.6, 4°C) and subsequent centrifugation (5000× g, 30 min, 4 °C). Cell pellets were suspended in ribosome preparation buffer ([…]) containing freshly added 2-mercapotethanol (4 mmol/L). Lysozyme was added to the resuspended cells and incubated on ice for 30 min. The cell suspension was disrupted six times using a FastPrep-24^TM 5G instrument (MP Biomedicals, Solon, OH, USA) with BigPrep 50 mL setting (40 s, 4.0 m/s), incubated with DNase I (5 mL/L) on ice for one hour and centrifuged (16,000× g, 30 min, 4 °C). The cell debris was removed from the supernatant by centrifugation (32,000× g, 60 min, 4 °C), and the supernatant was centrifuged again (165,000× g, 17 h, 4 °C). The pellet was resuspended in ribosome preparation buffer (0.1 mL per g cell pellet) to obtain the 70S ribosome extract and stored at −80 °C. The ribosome concentration was estimated by recording the absorbance at 260 nm (1 AU for a ribosome concentration of 28 nmol/L). The molecular weight of the 70S E. coli ribosome was assumed to be 2.3 MDa.
(§2) Kd was determined using a ribosome extract and cf-labeled peptides in ribosome preparation buffer. Briefly, black 384-well plates (flat bottom, Greiner Bio-One GmbH) were blocked with casein (0.5%, w/v) in phosphate buffer containing 0.05% (v/v) Tween 20 at 4 °C overnight and washed three times with phosphate buffer. A 2-fold dilution series of the ribosome extract (20 μL per well) in ribosome preparation buffer was prepared in a black 384-well plate (23 dilution steps). The cf-labeled peptide was dissolved in ribosome preparation buffer (20 μL, 40 nmol/L), added to each well, and incubated at 28 ± 1 °C. After 90 min, the fluorescence polarization was measured on a PARADIGMTM microplate reader (Beckman Coulter, Salzburg, Austria) in the top read position (λexc = 485 nm, λem = 535 nm) in triplicate on at least two different days. Data were fitted to a nonlinear, dose–response logistical transition equation [y= y0 + a/(1 + (x/x0)b)] using the Levenberg–Marquardt algorithm, with dissociation constants (Kd) represented by the x0 coefficients (GraphPad Prism for Windows v. 5.02, San Diego, CA, USA).

[2] = tested on: E. coli Rosetta; experiment: Uptake of cf-labeled PrAMPs; assay type: cell-based, Escherichia coli
Experimental: Bacteria were grown in 25% MHBII medium overnight, diluted fourfold with fresh medium, and incubated to obtain an OD600 of ~1. The cultures were adjusted to an OD600 of 1, and cf-labeled peptide was added to achieve a final concentration of 23 µmol/L (~64 µg/mL). After 0 min, 90 min, and 180 min, two aliquots (300 µL) of the culture were transferred to two tubes. One tube was immediately stored on ice in the dark. The second sample was centrifuged (10,000× g, 4 °C, 3 min), and the supernatant was transferred to a fresh tube and stored on ice in the dark. The pellet was washed with ice cold PBS (300 µL) and centrifuged (10,000× g, 4 °C, 3 min), and the supernatant was transferred into a fresh tube. Both the supernatant and the pellet resuspended in 300 µL ice cold PBS were stored on ice in the dark. After 180 min, an aliquot of the unprocessed sample (100 µL) was transferred to a translucent 96-well plate, and the absorbance was measured at 600 nm. Aliquots (100 µL) of the original cell culture, supernatants, wash solutions, and resuspended pellets were transferred into black 96-well plates to measure the fluorescence in a PARADIGM^TM microplate reader in the top read position (λexc = 485 nm, λem = 535 nm). Experiments were performed three times on different days. The relative fluorescence units were normalized to the measured OD600 values of the cell culture.

[3] = tested on: E. coli BW25113 ΔsbmA +psbmA_A31G/G219T; assay type: cell-based, Escherichia coli
Experimental: The minimal inhibitory concentrations (MIC) were determined at least twice in triplicate using a liquid broth microdilution assay in sterile 96-well plates and a total volume of 100 μL per well. Aqueous peptide solutions were serially 2-fold diluted in 25% MHBII or 33% TSB medium in a volume of 50 µL. An overnight culture was diluted in 25% MHBII or 33% TSB medium to 1.5 × 10^7 CFU/mL, and an aliquot of 50 μL was added to each well. The final cell count in each well was 7.5 × 10^6 CFU/mL. The plates were incubated at 37 °C for 20 ± 2 h. The turbidity of each well was measured at a wavelength of 600 nm. The MIC was defined as the lowest peptide concentration where the turbidity was identical to medium only.

[4] = tested on: 70S ribosome extract of E. coli Rosetta DE3 pLysS; experiment: Fluorescence polarization, Kd of cf-labeled peptides; assay type: binding, Escherichia coli; conditions: determined for the cf-labeled peptide, 28 °C, 90 min, 95% confidence interval in brackets, triplicate on at least two days, read-out: Kd, Ros
Experimental: as §1, §2

[5] = cf-labeled peptides 23 µmol/L, normalized fluorescence after 180 min

CC[C@H](C)[C@H](NC(=O)[C@H](Cc1ccc(O)cc1)NC(=O)[C@@H](NC(=O)[C@@H]1CCCN1C(=O)[C@H](CCCNC(=N)N)NC(=O)[C@H](CC(N)=O)NC(=O)[C@H](CC(N)=O)NC(=O)[C@H](CCCN)N=C(N(C)C)N(C)C)C(C)C)C(=O)N1CCC[C@H]1C(=O)N[C@@H](CCCNC(=N)N)C(=O)N1CCC[C@H]1C(=O)N[C@@H](CCCNC(=N)N)C(=O)N1CCC[C@H]1C(=O)N1CCC[C@H]1C(=O)N[C@@H](Cc1c[nH]cn1)C(=O)N1CCC[C@H]1C(=O)N[C@@H](CCCNC(=N)N)C(=O)N[C@@H](CC(C)C)C(N)=O [Api88] ({Orn(α-tetramethylguanidino)}-NNRPVYIPRPRPPHPRL-NH2) was tested, and the pKd [1] was 6.04 and the “uptake in E. coli Rosetta compared with Api137” value [2, 5] was “two- to threefold higher”.
For CC[C@H](C)[C@H](NC(=O)[C@H](Cc1ccc(O)cc1)NC(=O)[C@@H](NC(=O)[C@@H]1CCCN1C(=O)[C@H](CCCNC(=N)N)NC(=O)[C@H](CC(N)=O)NC(=O)[C@H](CC(N)=O)NC(=O)[C@H](CCCN)N=C(N(C)C)N(C)C)C(C)C)C(=O)N1CCC[C@H]1C(=O)N[C@@H](CCCNC(=N)N)C(=O)N1CCC[C@H]1C(=O)N[C@@H](CCCNC(=N)N)C(=O)N1CCC[C@H]1C(=O)N1CCC[C@H]1C(=O)N[C@@H](Cc1c[nH]cn1)C(=O)N1CCC[C@H]1C(=O)N[C@@H](CCCNC(=N)N)C(=O)N[C@@H](CC(C)C)C(=O)O [Api137] ({Orn(α-tetramethylguanidino)}-NNRPVYIPRPRPPHPRL-OH), the “MIC, 25% MHBII” value ([3]; BW25113 ΔsbmA +psbmA_A31G/G219T, 25% MHBII containing IPTG (0.1 mmol/L)) was 2 µg/mL (≈ 0.873 µM), the “MIC, 33% TSB” value ([3]; BW25113 ΔsbmA +psbmA_A31G/G219T, 33% TSB containing IPTG (0.1 mmol/L)) was 8 µg/mL (≈ 3.49 µM) and the pKd [4] was 6.70. For the same compound, the pKd [1] was 6.42 and the “normalized uptake of E. coli Rosetta, in words” value ([2]; cf-labeled peptides 23 µmol/L, 0, 90, 180 min) was “lowest uptake”.
For CC[C@H](C)[C@H](NC(=O)[C@@H]1CCCN1C(=O)[C@H](CCCNC(=N)N)NC(=O)[C@H](CC(N)=O)NC(=O)[C@H](CC(N)=O)NC(=O)CN)C(=O)N[C@@H](Cc1ccc(O)cc1)C(=O)N[C@H](C(=O)N1CCC[C@H]1C(=O)N[C@@H](CCCNC(=N)N)C(=O)N1CCC[C@H]1C(=O)N[C@@H](CCCNC(=N)N)C(=O)N1CCC[C@H]1C(=O)N1CCC[C@H]1C(=O)N[C@@H](Cc1c[nH]cn1)C(=O)N1CCC[C@H]1C(=O)N[C@@H](CCCNC(=N)N)C(=O)N1CCC[C@H]1C(=O)N[C@H](C(=O)N[C@@H](CCCNC(=N)N)C(=O)N[C@H](C(=O)O)C(C)C)[C@@H](C)CC)[C@@H](C)CC [Api805] (H-GNNRPIYIPRPRPPHPRPIRV-OH; N-terminus assumed), the “change of MIC after transformation of sbmA_A31G/G219T-harboring plasmid” value ([3]; compared with E. coli BW25113 ΔsbmA) was “not altered”, the pKd [4] was 6.29 and the pKd [1] was 6.25. The “uptake in E. coli Rosetta compared with E. coli BW25113” value ([2]; cf-labeled peptide 23 µmol/L, normalized fluorescence (OD600) after 180 min) was “approximately threefold higher”, the “uptake in E. coli Rosetta compared with Api88” value [2, 5] was “twofold higher” and the “uptake in E. coli Rosetta compared with Api137” value [2, 5] was “fivefold higher”.
